{"source": "patent US20250092001A1", "about": "“NOVEL EXCITATORY AMINO ACID GLUTAMATE TRANSPORT MODULATORS AND METHODS USING THE SAME” (Drexel University, priority 2022, published 2025)", "key": {"[1]": {"experiment": "Pharmacokinetics of GT467 and GT511 in rats, plasma and brain (IV, IP, PO)", "assay_type": "in vivo, rat", "conditions": "for AUC0-t: 0 to 24 hrs", "protocol": "Pharmacokinetics (PK) study for GT951 was conducted at Melior Discovery Services (Exton, PA). Fifteen male CD-1 mice 23-50 g was used for the study and the mice were housed 3 per cage. PK studies for GT467 and GT511 were conducted at Piramal Pharma solutions under approved protocols (Pune, India). One hundred and sixty-eight male Wistar rats were used for the study and housed 4 per cage. All animals were maintained on a standard 12 h light cycle and given free access to water and standard rodent chow. Food and water were available ad libitum. Animals were not fasted for any portion of the study and animals were acclimated to the animal care facility for seven days prior to the start of the experiment. The holding room and procedure room temperature was 21-23° C. and humidity was at 40-45% during the experiment (within the normal range of the care facility). All procedures were completed according to Institutional Animal Care and Use Committee (IACUC) approved protocols for housing and for PK studies.\nRats were dosed with the drug and blood and brain samples were collected at 0.5, 1, 2, 4, 8 and 24 h time points. Blood was collected via the sub-lingual vein under anesthesia into tubes containing Na2EDTA as an anticoagulant. Plasma fraction was separated by centrifuging the samples at 10,000 rpm for 5 min and the plasma was transferred to a cryo tube and stored at −80 C. Animals were euthanized and the brain was rapidly removed on ice and weighed. Brain was homogenized in Milli Q water and the homogenate was stored at −80 C until further use. Bioanalysis of the samples was performed using the SCIEX QTRAP 5500 LCMS/MS system with Phenomenex synergy C18 column and carbamazepine as internal standard. A methanol extraction procedure was used to precipitate the proteins in the sample. In addition to the internal standards, drug free plasma and brain samples were prepared for calibration and quantification standards. All samples were within the detectable range of the standard curves. 50 μl of the sample was added to 200 μl of the working solution of the internal standard and centrifuged for 5 min at 10,000 rpm. 60 μl of the supernatant was added to 140 μl of water and mixed well prior to transferring them for quantitative analysis on LCMS.\nSpecifically, rats were administered with GT467 or GT511 intraperitoneally (IP), intravenously (IV) or orally (PO). The concentration of the administered compounds measured at various timepoints in the plasma are depicted in FIGS. 4A and 4B, the concentrations of the administered compounds measured at various timepoints in the brain are depicted in FIGS. 5A and 5B.\nFurthermore, pharmacokinetic parameters such as the peak concentration (Cmax), the time to reach the peak concentration (Tmax), the area under curve from time 0 to T (i.e., 24 hrs) (AUC0-t), the area under curve from time 0 to infinite (AUC0-∞), the half-life (t1/2), the oral clearance (CL/F), the volume of distribution of drug observed (Vz_F_obs), and the percentage of bioavailability (% Bioavailability) were also measured or calculated."}, "[2]": {"test_system": "R6/2 mice (Huntington disease model)", "experiment": "Open field locomotion test", "assay_type": "in vivo, mouse", "conditions": "GTS467 2, 4, and 10 mg/kg", "protocol": "FIG. 9A depicts the results of a locomotion test. In the locomotion test of FIG. 9A, wildtype and R6/2 mice treated with vehicle or different doses of GTS467 (2, 4, and 10 mg/kg) or ceftriaxone (200 mg/kg) were subjected to the open field test to evaluate their locomotor abilities in a 44×44 cm and 43×43 cm square open field arena. Animals were placed individually in the open field arena and behavior was recorded for a period of 5 minutes under dim light and low noise conditions. Animal behavior was recorded using an overhead camera and the distance moved was recorded and quantified using the Noldus ethovision XT-14 software. FIG. 9B depicts the results of a memory task test. Referring to FIG. 9B, to test for memory impairment a novel object recognition assay was performed. A 44×44 cm square shaped open field arena was used to perform this test at week 12 and week 15. The behavioral evaluation was performed in 2 sets, each set having equal number of animals. […] The behavior was recorded under dim light and low noise conditions using an overhead camera. Cumulative duration with both the objects, total object exploration (sec), distance travelled (cm) was quantified using the Noldus ethovision XT 14 software. […]"}, "[3]": {"test_system": "NR2A, NR2B, NR1", "experiment": "Western blot of cortex and striatum of treated PD rats: NMDA receptor subunits", "assay_type": "in vivo, rat", "protocol": "Cortex and striatum were separately collected, and homogenates were prepared. Homogenates were centrifuged to obtain the protein extract in membrane and cytoplasmic fraction. Protein was estimated for each individual samples. Protein lysates were mixed with 6× loading buffer (5:1 ratio) and were heated (95° C. for 5 min). 20 μg protein was loaded to Tris-Glycine Mini gel for separation at […] for 2 h. Separated proteins were transferred to a PVDF membrane. 3% BSA was used for blocking the nontarget proteins to avoid noise. Membrane was incubated with primary Ab overnight at 4° C. followed by secondary Ab incubation for 3 h at room temperature. The protein bands were detected using ECL methods. The bands were quantified using Image J software."}, "[4]": {"test_system": "PD rats", "experiment": "Elevated plus maze (EPM)", "assay_type": "in vivo, rat", "conditions": "male PD rats; 4 mg/kg; 10 min post treatment", "protocol": "Referring to FIGS. 11-13, in the elevated plus maze test, male PD rats were treated with either saline or GTS467 (4 mg/kg). 10 min post treatment, the rats were placed in the middle of the elevated plus maze (EPM). Time spent in closed and open arms were recorded for 5 min. Frequency of entries in open and close arms was recorded."}, "[5]": {"conditions": "male, Wistar, rat plasma, IP 10 mg/kg"}, "[6]": {"conditions": "male, Wistar, rat plasma, IV 5 mg/kg"}, "[7]": {"conditions": "male, Wistar, rat plasma, PO 10 mg/kg"}}, "note": "Where two headings read alike, the source gives them in different places."}
{"compound": "COc1ccc(NC(=O)C(=O)NCC(c2ccccc2)N2CCN(C)CC2)cc1", "note": "(stereo not shown) [GT467, N1-(4-methoxyphenyl)-N2-(2-(4-methylpiperazin-1-yl)-2-phenylethyl)oxalamide]", "values": [{"measurement": "AUC(0-inf)", "setting": "[1]; [5]", "result": 556, "unit": "ng·h/mL"}, {"measurement": "Cmax", "setting": "[1]; [5]", "result": 262, "unit": "ng/mL"}, {"measurement": "AUC0-t", "setting": "[1]; male, Wistar, rat plasma, IP 10 mg/kg, read-out: AUC0-t", "result": 537, "unit": "ng·h/mL"}, {"measurement": "CL/F", "setting": "[1]; male, Wistar, rat plasma, IP 10 mg/kg, read-out: CL/F (converted)", "result": 302, "unit": "mL/min/kg"}, {"measurement": "AUC(0-inf)", "setting": "[1]; [6]", "result": 321, "unit": "ng·h/mL"}, {"measurement": "Cmax", "setting": "[1]; [6]", "result": 307, "unit": "ng/mL"}, {"measurement": "AUC0-t", "setting": "[1]; male, Wistar, rat plasma, IV 5 mg/kg, read-out: AUC0-t", "result": 316, "unit": "ng·h/mL"}, {"measurement": "AUC(0-inf)", "setting": "[1]; [7]", "result": 798, "unit": "ng·h/mL"}, {"measurement": "Cmax", "setting": "[1]; [7]", "result": 204, "unit": "ng/mL"}, {"measurement": "AUC0-t", "setting": "[1]; male, Wistar, rat plasma, PO 10 mg/kg, read-out: AUC0-t", "result": 507, "unit": "ng·h/mL"}, {"measurement": "CL/F", "setting": "[1]; male, Wistar, rat plasma, PO 10 mg/kg, read-out: CL/F (converted)", "result": 299, "unit": "mL/min/kg"}, {"measurement": "AUC0-∞", "setting": "[1]; rat brain, IP 10 mg/kg", "result": 4442.19, "unit": "ng·h/g"}, {"measurement": "Tmax", "setting": "[1]; rat brain, IP 10 mg/kg", "result": 30, "unit": "min"}, {"measurement": "t1/2", "setting": "[1]; rat brain, IP 10 mg/kg", "result": 97.2, "unit": "min"}, {"measurement": "AUC0-t", "setting": "[1]; rat brain, IP 10 mg/kg", "result": 4414.35, "unit": "ng·h/g"}, {"measurement": "AUC0-∞", "setting": "[1]; rat brain, IV 5 mg/kg", "result": 2015.59, "unit": "ng·h/g"}, {"measurement": "Tmax", "setting": "[1]; rat brain, IV 5 mg/kg", "result": 30, "unit": "min"}, {"measurement": "t1/2", "setting": "[1]; rat brain, IV 5 mg/kg", "result": 61.8, "unit": "min"}, {"measurement": "AUC0-t", "setting": "[1]; rat brain, IV 5 mg/kg", "result": 1959.70, "unit": "ng·h/g"}, {"measurement": "AUC0-∞", "setting": "[1]; rat brain, PO 10 mg/kg", "result": 3080.18, "unit": "ng·h/g"}, {"measurement": "Tmax", "setting": "[1]; rat brain, PO 10 mg/kg", "result": 52.8, "unit": "min"}, {"measurement": "t1/2", "setting": "[1]; rat brain, PO 10 mg/kg", "result": 109, "unit": "min"}, {"measurement": "AUC0-t", "setting": "[1]; rat brain, PO 10 mg/kg", "result": 2816.80, "unit": "ng·h/g"}, {"measurement": "% Bioavailability", "setting": "[1]; rat plasma, IP 10 mg/kg", "result": 85.03, "unit": "%"}, {"measurement": "Tmax", "setting": "[1]; rat plasma, IP 10 mg/kg", "result": 30, "unit": "min"}, {"measurement": "Vz_F_obs", "setting": "[1]; rat plasma, IP 10 mg/kg", "result": 26.470969, "unit": "L/kg"}, {"measurement": "t1/2", "setting": "[1]; rat plasma, IP 10 mg/kg", "result": 60.96, "unit": "min"}, {"measurement": "CL/F", "setting": "[1]; rat plasma, IV 5 mg/kg", "result": 273.17875, "unit": "mL/min/kg"}, {"measurement": "Tmax", "setting": "[1]; rat plasma, IV 5 mg/kg", "result": 30, "unit": "min"}, {"measurement": "Vz_F_obs", "setting": "[1]; rat plasma, IV 5 mg/kg", "result": 16.170403, "unit": "L/kg"}, {"measurement": "t1/2", "setting": "[1]; rat plasma, IV 5 mg/kg", "result": 39.1, "unit": "min"}, {"measurement": "% Bioavailability", "setting": "[1]; rat plasma, PO 10 mg/kg", "result": 80.34, "unit": "%"}, {"measurement": "Tmax", "setting": "[1]; rat plasma, PO 10 mg/kg", "result": 52.5, "unit": "min"}, {"measurement": "Vz_F_obs", "setting": "[1]; rat plasma, PO 10 mg/kg", "result": 95.358274, "unit": "L/kg"}, {"measurement": "t1/2", "setting": "[1]; rat plasma, PO 10 mg/kg", "result": 285.8, "unit": "min"}, {"measurement": "Plasma concentration and brain concentration by route of administration", "setting": "[1]; rats, IP, IV, PO", "result": "high plasma concentration and brain concentration"}, {"measurement": "Distance moved", "setting": "[2]", "result": "significantly increased"}, {"measurement": "NR1 expression", "setting": "[3]; cortex (CRTX)", "result": "reduced in CRTX"}, {"measurement": "NR2A, 2B and NR1 expressions", "setting": "[3]; synaptic level", "result": "elevation of NR2A, 2B and NR1 expressions"}, {"measurement": "Anxiety (time spent in open vs. closed arm of EPM)", "setting": "[4]", "result": "did not induce anxiety"}]}
